Measurements from article PMC11435058, “Synthesis of New Thiazole-Privileged Chalcones as Tubulin Polymerization Inhibitors with Potential Anticancer Activities” (Pharmaceuticals, 2024).
Where two headings read alike, the source gives them in different places.

Assays:
[1] = test system: 60 human tumor cell lines panel; assay: NCI-60 anticancer screen, whole panel (means and ranges over the cell lines); assay type: cell-based; conditions: for activity at 10 µM: Homo sapiens, 48 h, dose of 10 μM
HL-60(TB) = assay: NCI-60 anticancer screen (SRB; single dose and five doses); conditions: Homo sapiens
K-562 = assay: as above; conditions: Homo sapiens
MOLT-4 = assay: as above; conditions: Homo sapiens
RPMI-8226 = assay: as above; conditions: Homo sapiens
SR = assay: as above; conditions: Homo sapiens
A549/ATCC = assay: as above; conditions: Homo sapiens
HOP-62 = assay: as above; conditions: Homo sapiens
HOP-92 = assay: as above; conditions: Homo sapiens
COLO 205 = assay: as above; conditions: Homo sapiens
HCT-15 = assay: as above; conditions: Homo sapiens
HT29 = assay: as above; conditions: Homo sapiens
KM12 = assay: as above; conditions: Homo sapiens
SF-268 = assay: as above; conditions: Homo sapiens
LOX IMVI = assay: as above; conditions: Homo sapiens
MALME-3M = assay: as above; conditions: Homo sapiens
SK-MEL-5 = assay: as above; conditions: Homo sapiens
UACC-62 = assay: as above; conditions: Homo sapiens
IGROV1 = assay: as above; conditions: Homo sapiens
NCI/ADR-RES = assay: as above; conditions: Homo sapiens
CAKI-1 = assay: as above; conditions: Homo sapiens
RXF 393 = assay: as above; conditions: Homo sapiens
PC-3 = assay: as above; conditions: Homo sapiens
DU-145 = assay: as above; conditions: Homo sapiens
MDA-MB-231/ATCC = assay: as above; conditions: Homo sapiens
HS 578T = assay: as above; conditions: Homo sapiens
BT-549 = assay: as above; conditions: Homo sapiens
T-47D = assay: as above; conditions: Homo sapiens, T47D
[2] = five doses, mean graph midpoint over all cell lines
[3] = 48 h, read-out: Growth Percentage

With `Cc1[nH]c(=S)sc1C(=O)/C=C/c1ccc(Cl)cc1` [2f, (E)-3-(4-Chlorophenyl)-1-(4-Methyl-2-Thioxo-2,3-Dihydrothiazol-5-yl)Prop-2-En-1-One] the activity at 10 µM ([1]; mean over the tested cell lines, read-out: Mean growth percentage) was 23.7%, the activity at 10 µM ([1]; range over the cell lines, read-out: growth percentages against most of the tested cells (lowest to highest)) was -48.1 to 106% and the “Log10GI50 _MID” value [1, 2] was -5.13 Molar. For the same compound, the “Log10LC50 _MID” value [1, 2] was -4.23 Molar, the “Log10TGI _MID” value [1, 2] was -4.63 Molar and the GI50 (HL-60(TB); HL-60) was 3.55 µM. For the same compound, the IC50 (HL-60(TB); HL-60) was 5.89 µM, the activity at 10 µM (HL-60(TB); HL-60, 48 h, read-out: Growth Percentage) was -0.98% and the CC50 (HL-60(TB); HL-60, read-out: LC50) was > 100 µM. It also gave an IC (TGI) (HL-60(TB); HL-60, read-out: TGI) of 38 µM, a GI50 (K-562; K562) of 3.89 µM and an IC50 (K-562; K562) of 4.68 µM. The activity at 10 µM (K-562; K562, 48 h, read-out: Growth Percentage) was 7.94%, the CC50 (K-562; K562, read-out: LC50) was > 100 µM and the IC (TGI) (K-562; K562, read-out: TGI) was > 100 µM. For the same compound, the GI50 (MOLT-4; MOLT-4) was 14.5 µM, the IC50 (MOLT-4; MOLT-4) was 24.6 µM and the activity at 10 µM (MOLT-4; MOLT-4, 48 h, read-out: Growth Percentage) was 10.2%. For the same compound, the CC50 (MOLT-4; MOLT-4, read-out: LC50) was > 100 µM, the IC (TGI) (MOLT-4; MOLT-4, read-out: TGI) was 79.4 µM and the GI50 (RPMI-8226; RPMI-8226) was 2.4 µM. For the same compound, the activity at 10 µM (RPMI-8226; RPMI-8226, 48 h, read-out: Growth Percentage) was 13.8%, the IC50 (RPMI-8226; RPMI-8226, RPMI-8226, five doses) was 2.4 µM and the IC50 (RPMI-8226; RPMI-8226, five-dose, Leukemia RPMI-8226) was 4.68 µM. For the same compound, the CC50 (RPMI-8226; RPMI-8226, read-out: LC50) was > 100 µM, the IC (TGI) (RPMI-8226; RPMI-8226, read-out: TGI) was 8.32 µM and the GI50 (SR) was 3.55 µM. For the same compound, the IC50 (SR) was 5.37 µM, the CC50 (SR; read-out: LC50) was > 100 µM and the IC (TGI) (SR; read-out: TGI) was 56.2 µM. It also gave a GI50 (A549/ATCC; A549) of 10.7 µM, an IC50 (A549/ATCC; A549) of 16.2 µM and an activity at 10 µM (A549/ATCC; A549, 48 h, read-out: Growth Percentage) of 61.1%. It also gave a CC50 (A549/ATCC; A549, read-out: LC50) of 52.5 µM, an IC (TGI) (A549/ATCC; A549, read-out: TGI) of 24 µM and a GI50 (HOP-62; HOP-62) of 5.37 µM. It also gave an IC50 (HOP-62; HOP-62) of 12 µM, an activity at 10 µM (HOP-62; HOP-62, 48 h, read-out: Growth Percentage) of -2.73% and a CC50 (HOP-62; HOP-62, read-out: LC50) of 72.4 µM. For the same compound, the IC (TGI) (HOP-62; HOP-62, read-out: TGI) was 22.9 µM, the GI50 (HOP-92; HOP-92) was 11.5 µM and the IC50 (HOP-92; HOP-92) was 30.2 µM. It also gave an activity at 10 µM (HOP-92; HOP-92, 48 h, read-out: Growth Percentage) of 34.8%, a CC50 (HOP-92; HOP-92, read-out: LC50) of 63.1 µM and an IC (TGI) (HOP-92; HOP-92, read-out: TGI) of 26.9 µM. The GI50 (COLO 205; COLO 205) was 19.1 µM, the IC50 (COLO 205; COLO 205) was 33.9 µM and the activity at 10 µM (COLO 205; COLO 205, 48 h, read-out: Growth Percentage) was 78.2%. The CC50 (COLO 205; COLO 205, read-out: LC50) was 74.1 µM, the IC (TGI) (COLO 205; COLO 205, read-out: TGI) was 38 µM and the GI50 (HCT-15; HCT-15) was 4.07 µM. It also gave an IC50 (HCT-15; HCT-15) of 5.37 µM, an activity at 10 µM (HCT-15; HCT-15, 48 h, read-out: Growth Percentage) of -19.8% and a CC50 (HCT-15; HCT-15, read-out: LC50) of 49 µM. It also gave an IC (TGI) (HCT-15; HCT-15, read-out: TGI) of 16.6 µM, a GI50 (HT29; HT-29) of 6.76 µM and an IC50 (HT29; HT-29) of 9.55 µM. The activity at 10 µM (HT29; HT-29, 48 h, read-out: Growth Percentage) was 31.2%, the CC50 (HT29; HT-29, read-out: LC50) was 53.7 µM and the IC (TGI) (HT29; HT-29, read-out: TGI) was 20.9 µM. It also gave a GI50 (KM12; KM12) of 4.17 µM, an IC50 (KM12; KM12) of 8.13 µM and an activity at 10 µM (KM12; KM12, 48 h, read-out: Growth Percentage) of 6.77%. The CC50 (KM12; KM12, read-out: LC50) was 45.7 µM, the IC (TGI) (KM12; KM12, read-out: TGI) was 16.6 µM and the GI50 (SF-268; SF-268) was 12 µM. The IC50 (SF-268; SF-268) was 24.6 µM, the activity at 10 µM (SF-268; SF-268, 48 h, read-out: Growth Percentage) was 67.9% and the CC50 (SF-268; SF-268, read-out: LC50) was 64.6 µM. It also gave an IC (TGI) (SF-268; SF-268, read-out: TGI) of 28.2 µM, a GI50 (LOX IMVI) of 3.39 µM and an IC50 (LOX IMVI) of 4.47 µM. For the same compound, the activity at 10 µM (LOX IMVI; [3]) was -48.1%, the CC50 (LOX IMVI; read-out: LC50) was 38 µM and the IC (TGI) (LOX IMVI; read-out: TGI) was 12 µM. The GI50 (MALME-3M) was 14.5 µM, the IC50 (MALME-3M) was 30.9 µM and the CC50 (MALME-3M; read-out: LC50) was 75.9 µM. For the same compound, the IC (TGI) (MALME-3M; read-out: TGI) was 33.1 µM, the GI50 (SK-MEL-5; SK-MEL-5) was 11.2 µM and the IC50 (SK-MEL-5; SK-MEL-5) was 20.4 µM. It also gave an activity at 10 µM (SK-MEL-5; SK-MEL-5, 48 h, read-out: Growth Percentage) of 28%, a CC50 (SK-MEL-5; SK-MEL-5, read-out: LC50) of 49 µM and an IC (TGI) (SK-MEL-5; SK-MEL-5, read-out: TGI) of 23.4 µM. For the same compound, the GI50 (UACC-62; UACC-62) was 9.77 µM, the IC50 (UACC-62; UACC-62) was 17 µM and the activity at 10 µM (UACC-62; UACC-62, 48 h, read-out: Growth Percentage) was 33.9%. For the same compound, the IC (TGI) (UACC-62; UACC-62, read-out: TGI) was 22.4 µM, the GI50 (IGROV1; IGROV-1) was 13.2 µM and the IC50 (IGROV1; IGROV-1) was 25.7 µM. The CC50 (IGROV1; IGROV-1, read-out: LC50) was 93.3 µM, the IC (TGI) (IGROV1; IGROV-1, read-out: TGI) was 34.7 µM and the GI50 (NCI/ADR-RES) was 3.72 µM. For the same compound, the IC50 (NCI/ADR-RES) was 7.08 µM, the activity at 10 µM (NCI/ADR-RES; [3]) was -8.39% and the CC50 (NCI/ADR-RES; read-out: LC50) was 77.6 µM. For the same compound, the IC (TGI) (NCI/ADR-RES; read-out: TGI) was 17.4 µM, the GI50 (CAKI-1; CAKI-1) was 4.47 µM and the IC50 (CAKI-1; CAKI-1) was 8.71 µM. For the same compound, the activity at 10 µM (CAKI-1; CAKI-1, 48 h, read-out: Growth Percentage) was 53.2%, the CC50 (CAKI-1; CAKI-1, read-out: LC50) was 43.6 µM and the IC (TGI) (CAKI-1; CAKI-1, read-out: TGI) was 17.4 µM. It also gave a GI50 (RXF 393; RXF 393) of 5.89 µM, an IC50 (RXF 393; RXF 393) of 24 µM and an activity at 10 µM (RXF 393; RXF 393, 48 h, read-out: Growth Percentage) of 9.78%. The CC50 (RXF 393; RXF 393, read-out: LC50) was 49 µM, the IC (TGI) (RXF 393; RXF 393, read-out: TGI) was 19.9 µM and the GI50 (PC-3; PC-3) was 5.37 µM. The IC50 (PC-3; PC-3) was 9.77 µM, the CC50 (PC-3; PC-3, read-out: LC50) was 81.3 µM and the IC (TGI) (PC-3; PC-3, read-out: TGI) was 23.4 µM. For the same compound, the GI50 (DU-145; DU-145) was 4.9 µM, the IC50 (DU-145; DU-145) was 8.91 µM and the activity at 10 µM (DU-145; DU-145, 48 h, read-out: Growth Percentage) was 7.29%. It also gave a CC50 (DU-145; DU-145, read-out: LC50) of 42.7 µM, an IC (TGI) (DU-145; DU-145, read-out: TGI) of 17.4 µM and a GI50 (MDA-MB-231/ATCC; MDA-MB-231) of 16.2 µM. For the same compound, the IC50 (MDA-MB-231/ATCC; MDA-MB-231) was 30.9 µM, the activity at 10 µM (MDA-MB-231/ATCC; MDA-MB-231, 48 h, read-out: Growth Percentage) was 39.3% and the CC50 (MDA-MB-231/ATCC; MDA-MB-231, read-out: LC50) was 61.7 µM. The IC (TGI) (MDA-MB-231/ATCC; MDA-MB-231, read-out: TGI) was 31.6 µM, the GI50 (HS 578T) was 21.4 µM and the IC50 (HS 578T) was > 100 µM. The activity at 10 µM (HS 578T; [3]) was 48%, the CC50 (HS 578T; read-out: LC50) was > 100 µM and the IC (TGI) (HS 578T; read-out: TGI) was 77.6 µM. It also gave a GI50 (BT-549; BT-549) of 5.75 µM, an IC50 (BT-549; BT-549) of 20.9 µM and an activity at 10 µM (BT-549; BT-549, 48 h, read-out: Growth Percentage) of -14.4%. It also gave an IC (TGI) (BT-549; BT-549, read-out: TGI) of 20.4 µM, a GI50 (T-47D) of 3.47 µM and an IC50 (T-47D) of 14.1 µM. It also gave an activity at 10 µM (T-47D; [3]) of 1.38%, a CC50 (T-47D; read-out: LC50) of 81.3 µM and an IC (TGI) (T-47D; read-out: TGI) of 19.1 µM.
